Laboratory results as given in patent publication US20160101072A1, “Therapeutic uses of enzyme inhibitors” (Proximagen Limited, priority 2013, published 2016).
Marks after values point to notes of the source that are not given here.

Key:
Ly6C1 mRNA = experiment: mRNA quantification (RT PCR) of Ly6C1 in muscles of mdx mice; assay type: in vivo, mouse; details: mdx mice muscle
From the text: (§1) A total of a ninety C57BU10ScSn-Dmdmdx/J male mice, 3 weeks of age (+/-3days), were transferred to the in vivo research laboratory in Bar Harbor, Me. Additional ten […] male mice 3 weeks of age (+/-3 days) were also transferred and served as a wild-type control group. The mice were ear notched for identification and housed in ventilated polysulfone cages with HEPA filtered air at a density of 3-4 mice per cage. The animal room was lit entirely with artificial fluorescent lighting on controlled 12 hour light/dark cycle (6 a.m. to 6 p.m. light). […] The animal room was set for 15 air exchanges per hour. Filtered tap water acidified to a pH of 2.8 to 3.2 was provided ad libitum. […] Prior to study initiation, mice were acclimated for 3 days. Mice were tested for grip strength and in the open field at ages 25 and 26 days, and drug regimen was initiated at age 27 days. Mice were monitored twice weekly for clinical observations and body weights. […] 24 hours after the second open field tests, blood was collected by retro-orbital bleeding, and mice were humanely euthanized by CO2 asphyxiation. One triceps surae was collected fresh and processed for immune cell sorting, one tibialis anterior was preserved in RNALater for RNA extraction, one whole hind limb and the diaphragm were fixed in 2% paraformaldehyde overnight at 4° C. for paraffin embedding and histology stains. Total RNAs were extracted with a modification of the Trizol method, reverse transcribed, and mRNAs of TGFβ, and the following inflammation markers were quantified by the SYBR green method with GAPDH as a normalizer: […]

TNF mRNA = experiment: mRNA quantification (RT PCR) of TNF in muscles of mdx mice; assay type: in vivo, mouse; details: for TNF mRNA level: mdx mice muscle, GAPDH as normalizer; for effect on the level of TNF mRNA: treatment alone, mdx mouse muscle
From the text: as §1

Mpeg1 mRNA = experiment: mRNA quantification (RT PCR) of Mpeg1 in muscles of mdx mice; assay type: in vivo, mouse; details: mdx mice muscle
From the text: as §1

CD11b mRNA = experiment: mRNA quantification (RT PCR) of CD11b in muscles of mdx mice; assay type: in vivo, mouse; details: for CD11b mRNA level: mdx mice muscle, GAPDH as normalizer
From the text: as §1

IL-6 mRNA = experiment: mRNA quantification (RT PCR) of IL-6 in muscles of mdx mice; assay type: in vivo, mouse; details: mdx mice muscle
From the text: as §1

Lgals3 mRNA = experiment: mRNA quantification (RT PCR) of Lgals3 in muscles of mdx mice; assay type: in vivo, mouse; details: for Lgals3 mRNA level: mdx mice muscle, GAPDH as normalizer; for effect on the level of Lgals3 mRNA: treatment alone, mdx mouse muscle
From the text: as §1

CD48 mRNA = experiment: mRNA quantification (RT PCR) of CD48 in muscles of mdx mice; assay type: in vivo, mouse; details: for CD48 mRNA level: mdx mice muscle, GAPDH as normalizer; for effect on the level of CD48 mRNA: treatment alone, mdx mouse muscle
From the text: as §1

[1] = system: lymphoid CD4-CD8- (double negative, DN) T cells; experiment: Cell sorting: recruitment of lymphoid CD4-CD8- (double negative, DN) T cells into muscles of mdx mice; assay type: in vivo, mouse; details: mdx mice muscle
From the text: (§2) In this example, labelled antibodies were used to assess infiltration of inflammatory myeloid and lymphoid cells into muscles of mdx mice following treatment of the mice with different doses of the glucocorticoid prednisolone, and the VAP-1 inhibitors carbidopa and benserazide. CD11b is a transmembrane glycoprotein which is expressed on the surface of granulocytes (including neutrophils and eosinophils), monocytes, NK cells, dendritic cells, tissue macrophages and subsets of T and B cells. Labelled antibody to CD11b was used to assess infiltration of inflammatory myeloid cells into muscles of mdx mice. Labelled antibody to Ly6C was used to assess infiltration of pro- and anti-inflammatory monocytes into muscles of mdx mice. Labelled antibody to CD4 and CD8a antigen was used to assess infiltration of Th cells (CD4^+CD8^-) and double negative (CD4^-CD8^-) T cells into muscles of mdx mice. A total of a ninety C57BU10ScSn-Dmdmdx/J male mice, 3 weeks of age (+/-3days), were transferred to the in vivo research laboratory in Bar Harbor, Me. Additional ten […] male mice 3 weeks of age (+/-3 days) were also transferred and served as a wild-type control group. The mice were ear notched for identification and housed in ventilated polysulfone cages with HEPA filtered air at a density of 3-4 mice per cage. The animal room was lit entirely with artificial fluorescent lighting on controlled 12 hour light/dark cycle (6 a.m. to 6 p.m. light). […] The animal room was set for 15 air exchanges per hour. Filtered tap water acidified to a pH of 2.8 to 3.2 was provided ad libitum. […] Prior to study initiation, mice were acclimated for 3 days. Mice were tested for grip strength and in the open field at ages 25 and 26 days, and drug regimen was initiated at age 27 days. Mice were monitored twice weekly for clinical observations and body weights. […] 24 hours after the second open field tests, blood was collected by retro-orbital bleeding, and mice were humanely euthanized by CO2 asphyxiation. One triceps surae was collected fresh and processed for immune cell sorting, one tibialis anterior was preserved in RNALater for RNA extraction, one whole hind limb and the diaphragm were fixed in 2% paraformaldehyde overnight at 4° C. for paraffin embedding and histology stains. For immune cell sorting, muscle samples were enzymatically and mechanically dissociated following manufacturer instructions (Skeletal Muscle Dissociation KitCatalog no. 130-098-305, Miltenyi Biotec). Cells were stained with the following antibodies: [table] Stained cells were analyzed on a BD LSR II cytometer and counts of different populations were expressed in percentage of the number of live cells counted.

[2] = system: CD11b+Ly6Chigh profibrotic : CD11b+Ly6Clow anti-fibrotic myeloid cells; experiment: Ratio of profibrotic to anti-fibrotic myeloid cells in mdx mouse muscle; assay type: in vivo; details: both doses
From the text: In this example, labelled antibodies were used to assess infiltration of inflammatory myeloid and lymphoid cells into muscles of mdx mice following treatment of the mice with different doses of the glucocorticoid prednisolone, and the VAP-1 inhibitors carbidopa and benserazide. […] Labelled antibody to CD11b was used to assess infiltration of inflammatory myeloid cells into muscles of mdx mice. Labelled antibody to Ly6C was used to assess infiltration of pro- and anti-inflammatory monocytes into muscles of mdx mice. Labelled antibody to CD4 and CD8a antigen was used to assess infiltration of Th cells (CD4^+CD8^−) and double negative (CD4^−CD8^−) T cells into muscles of mdx mice.
A total of a ninety C57BU10ScSn-Dmdmdx/J male mice, 3 weeks of age (+/−3days), were transferred to the in vivo research laboratory in Bar Harbor, Me. Additional ten C57BU10ScSnJ male mice 3 weeks of age (+/−3 days) were also transferred and served as a wild-type control group. The mice were ear notched for identification and housed in ventilated polysulfone cages with HEPA filtered air at a density of 3-4 mice per cage. […]

[3] = system: CD11b+Ly6Chigh profibrotic myeloid cells (Ly6C+ monocytes); experiment: Cell sorting: recruitment of CD11b+Ly6Chigh profibrotic myeloid cells into muscles of mdx mice; assay type: in vivo, mouse; details: mdx mice muscle; for % change compared to vehicle (CD11b+Ly6Chigh profibrotic myeloid cells) / % of viable cells (CD11b+Ly6Chigh profibrotic myeloid cells): 4 weeks
From the text: as §2

CD11b+ myeloid cells = experiment: Cell sorting: recruitment of CD11b+ myeloid cells into muscles of mdx mice; assay type: in vivo, mouse; details: mdx mice muscle; for % change compared to vehicle (CD11b+ myeloid cells) / % of viable cells (CD11b+ myeloid cells): 4 weeks
From the text: as §2

CD53 mRNA = experiment: mRNA quantification (RT PCR) of CD53 in muscles of mdx mice; assay type: in vivo, mouse; details: for CD53 mRNA level: mdx mice muscle, GAPDH as normalizer
From the text: as §1

[4] = system: lymphoid CD4+CD8- T cells; experiment: Cell sorting: recruitment of lymphoid CD4+CD8- T cells into muscles of mdx mice; assay type: in vivo, mouse; details: mdx mice muscle
From the text: as §2

TGFβ mRNA = experiment: mRNA quantification (RT PCR) of pro-fibrotic growth factor TGFβ in muscles of mdx mice; assay type: in vivo, mouse; details: for % change compared to vehicle (TGFβ mRNA) / TGFβ mRNA: mdx mice muscle; for TGFβ mRNA: GAPDH as normalizer
From the text: as §1

[5] = system: CD11b+Ly6Clow anti-fibrotic myeloid cells (Ly6C- monocytes); experiment: Cell sorting: recruitment of CD11b+Ly6Clow anti-fibrotic myeloid cells into muscles of mdx mice; assay type: in vivo, mouse; details: mdx mice muscle; for % change compared to vehicle (CD11b+Ly6Clow anti-fibrotic myeloid cells) / % of viable cells (CD11b+Ly6Clow anti-fibrotic myeloid cells): 4 weeks
From the text: as §2

[6] = mdx mouse muscle, compared to vehicle
[7] = 100 mg/kg po twice/day, 4 weeks
[8] = doses as in the table (carbidopa 100, benserazide 20 mg/kg po twice/day; prednisolone 1 mg/kg ip once/day)
[9] = treatment alone, mdx mouse muscle

C[C@@](Cc1ccc(O)c(O)c1)(NN)C(=O)O [Carbidopa]
effect on Ly6C1 mRNA level (Ly6C1 mRNA): No effects | TNF mRNA level (TNF mRNA; 50 mg/kg po twice/day): 0.74 | effect on the level of TNF mRNA (TNF mRNA): No significant effect | effect on Mpeg1 mRNA level (Mpeg1 mRNA): No effects | CD11b mRNA level (CD11b mRNA; 50 mg/kg po twice/day): 0.58* | reduction of the level of CD11b mRNA (CD11b mRNA; [6]): 42% | effect on IL-6 mRNA level (IL-6 mRNA): No effects | Lgals3 mRNA level (Lgals3 mRNA; 50 mg/kg po twice/day): 0.66 | effect on the level of Lgals3 mRNA (Lgals3 mRNA): no significant effect | CD48 mRNA level (CD48 mRNA; 50 mg/kg po twice/day): 0.86 | effect on the level of CD48 mRNA (CD48 mRNA): no significant effect | % change compared to vehicle (lymphoid CD4-CD8- DN T cells) [1, 7]: −56.4% | % of viable cells (lymphoid CD4-CD8- DN T cells) [1, 7]: 14.2** % | reduction of recruitment of lymphoid DN T cells compared with vehicle [1, 8]: ~50% | relative levels of pro- and anti-fibrotic myeloid cells [2]: in favour of anti-fibrotic myeloid cells | % change compared to vehicle (CD11b+Ly6Chigh profibrotic myeloid cells) ([3]; 50 mg/kg po twice/day): −86.4% | % of viable cells (CD11b+Ly6Chigh profibrotic myeloid cells) ([3]; 50 mg/kg po twice/day): 1.75** % | % change compared to vehicle (CD11b+Ly6Chigh profibrotic myeloid cells) ([3]; 100 mg/kg po twice/day): −82.1% | % of viable cells (CD11b+Ly6Chigh profibrotic myeloid cells) ([3]; 100 mg/kg po twice/day): 1.31** % | reduction of profibrotic myeloid cell recruitment compared with vehicle ([3]; at both doses tested): over 80% | % change compared to vehicle (CD11b+ myeloid cells) (CD11b+ myeloid cells; 50 mg/kg po twice/day): −55.2% | % of viable cells (CD11b+ myeloid cells) (CD11b+ myeloid cells; 50 mg/kg po twice/day): 16.3** % | % change compared to vehicle (CD11b+ myeloid cells) (CD11b+ myeloid cells; 100 mg/kg po twice/day): −49.2% | % of viable cells (CD11b+ myeloid cells) (CD11b+ myeloid cells; 100 mg/kg po twice/day): 18.5** % | reduction of myeloid cell recruitment compared with vehicle (CD11b+ myeloid cells; both carbidopa doses (columns 5 and 6 of FIG. 4)): approximately 50% | CD53 mRNA level (CD53 mRNA; 50 mg/kg po twice/day): 0.46** | reduction of the level of CD53 mRNA (CD53 mRNA; [6]): 52.6% | % change compared to vehicle (lymphoid CD4+CD8- T cells) [4, 7]: −51.4% | % of viable cells (lymphoid CD4+CD8- T cells) [4, 7]: 7.1** % | reduction of recruitment of lymphoid CD4+CD8- T cells compared with vehicle [4, 8]: over 33.3% | % change compared to vehicle (TGFβ mRNA) (TGFβ mRNA; 50 mg/kg po twice/day): −34.7% | TGFβ mRNA (TGFβ mRNA; 50 mg/kg po twice/day): 0.79 | reduction of the TGFβ mRNA level (fraction in words) (TGFβ mRNA; treatment alone, muscle of mdx mice): over a third | % change compared to vehicle (CD11b+Ly6Clow anti-fibrotic myeloid cells) ([5]; 50 mg/kg po twice/day): −49.3% | % of viable cells (CD11b+Ly6Clow anti-fibrotic myeloid cells) ([5]; 50 mg/kg po twice/day): 13.8** % | % change compared to vehicle (CD11b+Ly6Clow anti-fibrotic myeloid cells) ([5]; 100 mg/kg po twice/day): −41.2% | % of viable cells (CD11b+Ly6Clow anti-fibrotic myeloid cells) ([5]; 100 mg/kg po twice/day): 16** % | inhibition of recruitment of anti-fibrotic myeloid cells compared with vehicle ([5]; both carbidopa doses (columns 5, 6 of FIG. 5B)): less than 50%

C[C@]12C=CC(=O)C=C1CC[C@@H]1[C@@H]2[C@@H](O)C[C@@]2(C)[C@H]1CC[C@]2(O)C(=O)CO [Prednisolone, prednisolone]
effect on Ly6C1 mRNA level (Ly6C1 mRNA): No effects | TNF mRNA level (TNF mRNA; 0.2 mg/kg ip once/day): 0.92 | effect on the level of TNF mRNA (TNF mRNA): No significant effect | effect on Mpeg1 mRNA level (Mpeg1 mRNA): No effects | CD11b mRNA level (CD11b mRNA; 0.2 mg/kg ip once/day): 1.42 | effect on the level of CD11b mRNA (CD11b mRNA; [9]): not significantly affected | effect on IL-6 mRNA level (IL-6 mRNA): No effects | Lgals3 mRNA level (Lgals3 mRNA; 0.2 mg/kg ip once/day): 1.2 | effect on the level of Lgals3 mRNA (Lgals3 mRNA): no significant effect | CD48 mRNA level (CD48 mRNA; 0.2 mg/kg ip once/day): 1 | effect on the level of CD48 mRNA (CD48 mRNA): no significant effect | % change compared to vehicle (CD11b+Ly6Chigh profibrotic myeloid cells) ([3]; 0.2 mg/kg ip once/day): +0.6% | % of viable cells (CD11b+Ly6Chigh profibrotic myeloid cells) ([3]; 0.2 mg/kg ip once/day): 7.37% | % change compared to vehicle (CD11b+Ly6Chigh profibrotic myeloid cells) ([3]; 1 mg/kg ip once/day): −38.3% | % of viable cells (CD11b+Ly6Chigh profibrotic myeloid cells) ([3]; 1 mg/kg ip once/day): 4.52% | effect on recruitment of profibrotic myeloid cells compared with vehicle ([3]; both doses): no statistically significant effect | % change compared to vehicle (CD11b+ myeloid cells) (CD11b+ myeloid cells; 0.2 mg/kg ip once/day): +14.8% | % of viable cells (CD11b+ myeloid cells) (CD11b+ myeloid cells; 0.2 mg/kg ip once/day): 41.8% | % change compared to vehicle (CD11b+ myeloid cells) (CD11b+ myeloid cells; 1 mg/kg ip once/day): +20.9% | % of viable cells (CD11b+ myeloid cells) (CD11b+ myeloid cells; 1 mg/kg ip once/day): 44% | CD53 mRNA level (CD53 mRNA; 0.2 mg/kg ip once/day): 1.33 | effect on the level of CD53 mRNA (CD53 mRNA; [9]): not significantly affected | % change compared to vehicle (TGFβ mRNA) (TGFβ mRNA; 0.2 mg/kg ip once/day): 48.8% | TGFβ mRNA (TGFβ mRNA; 0.2 mg/kg ip once/day): 1.80 | effect on the level of TGFβ mRNA (TGFβ mRNA; prednisolone alone, muscle of mdx mice): increased | % change compared to vehicle (CD11b+Ly6Clow anti-fibrotic myeloid cells) ([5]; 0.2 mg/kg ip once/day): +0.4% | % of viable cells (CD11b+Ly6Clow anti-fibrotic myeloid cells) ([5]; 0.2 mg/kg ip once/day): 27.3% | % change compared to vehicle (CD11b+Ly6Clow anti-fibrotic myeloid cells) ([5]; 1 mg/kg ip once/day): +0.7% | % of viable cells (CD11b+Ly6Clow anti-fibrotic myeloid cells) ([5]; 1 mg/kg ip once/day): 27.4% | effect on recruitment of anti-fibrotic myeloid cells compared with vehicle ([5]; both doses): no statistically significant effect
